Tests used:
Type in all cases: in vivo
BKW male albino mice = experiment: Black and white box test (Example 10); settings: 0.1 mg/kg IP 40 min before test, 5-min period
rats [1] = experiment: Elevated plus maze (X-maze) in rats; settings: 0.125 mg/kg IP 40 min before test, 5-min period
Excerpt: The X-maze is constructed from Perspex® and comprises four arms (2 open, 2 closed), each 50 cm long by 9.5 wide and 40 high (closed, arms only) connected by a centre square (9.5×9.5). The open arm has a small lip (3 mm) to assist in the retention of the rat on the arm. The apparatus was housed in a room under subdued lighting conditions.
This model is based on the observation of spontaneous activity of rodents placed in an aversive environment produced by height and often spaces. […] Anxiolytic drugs increase the exploratory activity and the number of entries into the open arms. Rats were allowed at least 1 hour to acclimatise to the environment before testing commenced. Drug treatments were given IP in a pseudo-random, blind design, 40 minutes before behavioural testing, as appropriate. Rats were placed onto the centre square of the X-maze facing a specified open arm, and its behaviour was recorded by remote video over a 5 minute experimental period. The behavioural parameters were subsequently assessed by technicians reviewing the videotape and included: entries into each arm type, time spent on each arm type, rearing, stretch attend postures and head dips.

rats [2] = experiment: Escape deficit test (learned helplessness), antidepressant activity; settings: rats treated IP for 15 days, unavoidable stress 16 h and escape test 24 h after last dosing; out of 30 trials; dose not given
Method: The “Escape deficit” test that derives from the classic paradigm of “learned helplessness” was used, as described by Meloni et al. in Pharmacol. Biochem. Behav. 46, 423-6 (1993) and Gambarana et al. in Behav. Pharmacol. 6, 66-73 (1995) and Neuropsychopharmacol. 21, 247-57 (1999). Exposure to an unavoidable stress induces […], which, after 24 hours, makes the rats unable to escape from a nociceptive stimulus. Rats exposed to unavoidable stress make 0-5 escapes out of 30 trials, while naïve rats realise 26-30 escapes. Classical anti-depressives prevent the occurrence of the escape deficit after chronic treatment (15 days).
Rats were treated intra-peritoneally (IP) for 15 days, and then submitted to the unavoidable stress (16 hours after the last dosing) prior to being subjected to the escape test (24 hours after the last dosing).

[3] = test system: Male rats of the Wistar strain; experiment: Despair test (forced swim); settings: 5-min test, mean ± S.E.M.
[4] = test system: Male rats of the Wistar strain; experiment: Reserpine-induced changes in open field behaviour; settings: reserpine 0.1 mg/kg SC daily for 14 days, 5-min test, mean ± S.E.M.
Method: Rats treated with the compound of Example 1 were compared to either rats treated with the classical antidepressant, clomipramine or controls in the despair test (forced swim). The same groups were also tested for the reserpine-induced changes in open field behaviour.
Male rats of the Wistar strain (purchased from Charles River, Italy) weighing 220-240 g were used throughout all experiments. For at least 1 week prior to the experiment, the rats were housed four to a cage at a constant temperature of 21° C., and under a 12-h light/dark cycle (lights on between 08:00 and 20:00), with food and water available ad libitum.
An acute IP injection of clomipramine hydrochloride (50 mg/kg) or of the compound of Example 1 (0.2 and 0.5 mg/kg) or physiological saline was made in animals subjected to the reserpine-induced changes in the open field test (the injection was made together with the last reserpine administration, e.g. 1 h prior to the open field test).
All animals were gently manipulated by experienced facilities' keepers avoiding any environmental or physical stress. Rats subjected to drugs or physiological saline administration received an injection of a 1-mL standard volume of solution with a 23-gauge stainless steel needle of 31 mm length (for […]) or 21 mm length (for SC injections). The animals were randomly assigned to any treatment group and were used only once in the behavioural experiments.
Reserpine-induced changes in open field behaviour was studied according to the method described in Naunyn-Schmiedeberg's Arch. Pharmacol. 293: 109-114 (Vetulani et al., 1976). Reserpine (Sigma, USA) was dissolved in physiological saline and injected daily for 14 days at the dose of 0.1 mg/kg subcutaneously (SC). A period of 1 hour after the last injection of reserpine, animals were subjected to the open field test. This consisted of the measure of ambulation and rearing of the rat in a circular area divided into 17 equal sections and lighted by a centrally suspended lamp. The areas explored by the rat at least with anterior paws was recorded in 5 min test. The episodes of rearing towards the centre or the walls were also recorded in 5 min test.
All data were analysed using univariate random design analysis of variance (one-way ANOVA) and the post hoc Dunnett's test for multiple comparisons. A P-value of 0.05 or less was considered as indicative of a significant difference.

[5] = acute 0.2 mg/kg IP 1 h prior to open field test
[6] = acute 0.5 mg/kg IP 1 h prior to open field test
[7] = acute 0.5 mg/kg IP 1 h prior to open field test, listed as Example 1

Compound: O=C1CCCC=C1C1COCCN1O (stereo not shown) [Ex. 1 (Abio 09/01), 2-(4-hydroxy-3-morpholinyl)-2-cyclohexenone]
- Atot = Total exploratory activity (BKW male albino mice): +10.4
- CB/TB = crossings in the white compartment/time in white (BKW male albino mice): −0.05
- CN/TN = crossings in the black compartment/time in black (BKW male albino mice): 0.08
- Ctot = total number of crossings (BKW male albino mice): +7.5
- FI = Initial potency (BKW male albino mice): +11.5
- PT = Total passages through the partition (BKW male albino mice): +0.9
- RB/TB = rearings in the white compartment/time in white (BKW male albino mice): +0.02
- RN/TN = rearings in the black compartment/time in black (BKW male albino mice): +0.06
- Rtot = Total number of rearings (BKW male albino mice): +5
- TB = time in white section (BKW male albino mice; signed value): +53.4
- % time spent in open arms (rats [1]): 39 ± 10%
- No. of entries in open arms (rats [1]): 5.2 ± 1.4
- No. of escapes (rats [2]): 23.3 ± 1.3
- Duration of Immobility ([3]; 0.2 mg/kg IP): 167.00 ± 11.11
- Duration of Immobility ([3]; 0.5 mg/kg IP, 0.5 mg/kg): 109.83 ± 9.12
- Duration of Immobility ([3]; 0.5 mg/kg IP, listed as Example 1, 0.5 mg/kg): significant decrease of immobility time
- No. of Floor Units (ambulation) [4, 5]: 128.1 ± 11.9
- Rearing Episodes [4, 5]: 5.9 ± 0.3
- No. of Floor Units (ambulation) [4, 6]: 92.2 ± 11.1
- Rearing Episodes [4, 6]: 2.2 ± 0.5
- No. of Floor Units (ambulation) [4, 7]: decreased ambulation
- Rearing Episodes [4, 7]: decreased ambulation (number of floor units entered) and rearing
